# Laboratory results from PMC6290023 (Scientific Reports, 2018).
# Peptide text beside a SMILES is read from it.
# Legend:
# [1] = test system: mouse osteoclast precursor cells; assay: Osteoclast differentiation of mouse osteoclast precursor cells (TRAP-positive large cells); assay type: cell-based; conditions: M-CSF 50 ng/ml, 5 days
# Description: Osteoclast differentiation was examined using a mouse osteoclast culture system obtained from Cosmo Bio Co. Ltd. (Tokyo, Japan). Mouse osteoclast precursor cells seeded in a 24-well plate were incubated with macrophage colony stimulating factor (50 ng/ml) and RANKL (50 ng/ml) with or without MHP1-AcN. After five days, osteoclast precursors stimulated with RANKL had fused with each other and became multinucleated TRAP-positive cells. Cells with more than ten nuclei were classified as large osteoclasts. The number of these cells in each group was counted with a phase contrast microscope (BZ-9000, Keyence, Tokyo) using BZII analyzer software (v1.42; Keyence, Tokyo).
# [2] = Dissolution in water and sedimentation in 0.45% saline at 37 °C for 24 h; assay type: physicochemical; conditions: for sedimentation after incubation in 0.45% saline: 37 °C, 24 h, visual
# Description: Synthetic MHP1 (NH2-[…]-COOH), MHP1-DN1 (NH2-LMVYVV-DLys-[…]-COOH), MHP1-DN2 (NH2-LMV-DTyr-[…]-COOH), MHP1-DN3 (NH2-L-DMet-[…]-COOH), MHP1-DC (NH2-LMVYVVKTSIKIPSSHNL-DMet-KGGSTKNWSGN-COOH), MHP1-Ac (Ac-[…]-COOH), MHP1-AcN (Ac-[…]-HN2), or MHP1-N (NH2-[…]-NH2) was purchased from ILS, Inc (Ibaraki, Tsukuba, Japan), dissolved in 1 or 2 mg/ml ddH2O and stored at 4 °C until use (Table 1).
structure (smiles),measurement,setting,value
CC[C@H](C)[C@H](NC(=O)[C@H](CO)NC(=O)[C@@H](NC(=O)[C@H](CCCCN)NC(=O)[C@@H](NC(=O)[C@@H](NC(=O)[C@H](Cc1ccc(O)cc1)NC(=O)[C@@H](NC(=O)[C@H](CCSC)NC(=O)[C@H](CC(C)C)NC(C)=O)C(C)C)C(C)C)C(C)C)[C@@H](C)O)C(=O)N[C@@H](CCCCN)C(=O)N[C@H](C(=O)N1CCC[C@H]1C(=O)N[C@@H](CO)C(=O)N[C@@H](CO)C(=O)N[C@@H](Cc1c[nH]cn1)C(=O)N[C@@H](CC(N)=O)C(=O)N[C@@H](CC(C)C)C(=O)N[C@@H](CCSC)C(=O)N[C@@H](CCCCN)C(=O)NCC(=O)NCC(=O)N[C@@H](CO)C(=O)N[C@H](C(=O)N[C@@H](CCCCN)C(=O)N[C@@H](CC(N)=O)C(=O)N[C@@H](Cc1c[nH]c2ccccc12)C(=O)N[C@@H](CO)C(=O)NCC(=O)N[C@@H](CC(N)=O)C(N)=O)[C@@H](C)O)[C@@H](C)CC [MHP1-AcN] (Ac-LMVYVVKTSIKIPSSHNLMKGGSTKNWSGN-NH2),effect on RANKL-induced osteoclast differentiation,[1]; RANKL 50 ng/ml,inhibited RANKL-induced osteoclast differentiation
same,effect on osteoclast differentiation (peptide alone),[1]; without RANKL,did not affect the osteoclast differentiation
same,sedimentation after incubation in 0.45% saline,[2]; 1 mg/ml,sedimentation was not observed
same,sedimentation after incubation in 0.45% saline,[2]; 2 mg/ml,sedimentation was not observed
same,dissolution in water,[2]; water,easily dissolved in water
